Measurements taken from patent US9149038B2, “4-amino-6-(heterocyclic)picolinates and 6-amino-2-(heterocyclic)pyrimidine-4-carboxylates and their use as herbicides” (Dow AgroSciences LLC, priority 2013, dated 2015).
Like-named read-outs stand apart in the source and are kept apart here.

Assays:
[1] = system: Key Broadleaf and Grass Weed as well as Crop Species; test: Post-Emergent Test I: postemergent herbicidal activity, visual phytotoxicity rating 10 days after treatment (Table 5); format: in vivo; details: 4 kg ai/ha; for Visual Growth Reduction (%) 10 Days After Application ECHCG: barnyardgrass (Echinochloa crus-galli); for pest or weed control at 4000 g/ha: post-emergence, 240 h, 10 days after application
Protocol: Herbicidal evaluations were made visually on a scale of 0 to 100 where 0 represents no activity and 100 represents complete plant death. Post-Emergent Test I: Seeds of test species were obtained from commercial suppliers and planted into a 5″-round pot containing soil-less media mix (Metro-Mix 360®, Sun Gro Horticulture). Postemergence treatments were planted 8-12 days (d) prior to application and cultured in a greenhouse equipped with supplemental light sources to provide a 16 h photoperiod at 24-29° C. All pots were surface irrigated. Approximately 10 milligrams (mg) of each compound were dissolved in 1.3 mL acetone-DMSO (97:3, volume per volume (v/v)) and diluted with 4.1 mL water-isopropanol-crop oil concentrate (78:20:2, v/v/v) containing 0.02% Triton X-155. Treatments were serial diluted with the above formulation solvent to provide 1.85, 0.926, 0.462 and 0.231 milligrams per milliliter (mg/mL) of test compound delivered in 2.7 mL/pot (roughly equivalent to 4.0, 2.0, 1.0, and 0.5 kg/ha, respectively). Formulated compounds were applied using a DeVilbiss® compressed air sprayer at 2-4 pounds per square inch (psi). Following treatment, pots were returned to the greenhouse for the duration of the experiment. All pots were sub-irrigated as needed to provide optimum growing conditions. All pots were fertilized one time per week by subirrigating with Peters Peat-Lite Special® fertilizer (20-10-20). Phytotoxicity ratings were obtained 10 days after treatment postemergence applications. All evaluations were made visually on a scale of 0 to 100 where 0 represents no activity and 100 represents complete plant death and are presented as indicated in Table 4.

[2] = system: Key Broadleaf Weed and Crop Species; test: Post-Emergent Test II: postemergent herbicidal activity, visual rating after 14 d (Table 7); format: in vivo; details: post-emergence, 336 h, 140 g ai/ha
Description: (§1) Herbicidal evaluations were made visually on a scale of 0 to 100 where 0 represents no activity and 100 represents complete plant death.
(§2) Seeds or nutlets of the desired test plant species were planted in Sun Gro Metro-Mix® 360 planting mixture, which typically has a pH of 6.0 to 6.8 and an organic matter content of about 30 percent, in plastic pots with a surface area of 64 square centimeters (cm^2). When required to ensure good germination and healthy plants, a fungicide treatment and/or other chemical or physical treatment was applied. The plants were grown for 7-21 d in a greenhouse with an approximate 15 h photoperiod which was maintained at about 23-29° C. during the day and 22-28° C. during the night. Nutrients and water were added on a regular basis and supplemental lighting was provided with overhead metal halide 1000-Watt lamps as necessary. The plants were employed for testing when they reached the first or second true leaf stage.
(§3) A weighed amount, determined by the highest rate to be tested, of each test compound was placed in a 25 mL glass vial and was dissolved in 4 mL of a 97:3 v/v mixture of acetone and DMSO to obtain concentrated stock solutions. […] The concentrated stock solutions obtained were diluted with 20 mL of an aqueous mixture containing acetone, water, isopropyl alcohol, DMSO, Atplus 411F crop oil concentrate, and Triton® X-155 surfactant in a 48.5:39:10:1.5:1.0:0.02 v/v ratio to obtain spray solutions containing the highest application rates. Additional application rates were obtained by serial dilution of 12 mL of the high rate solution into a solution containing 2 mL of a 97:3 v/v mixture of acetone and DMSO and 10 mL of an aqueous mixture containing acetone, water, isopropyl alcohol, DMSO, Atplus 411F crop oil concentrate, and Triton X-155 surfactant in a 48.5:39:10:1.5:1.0:0.02 v/v ratio to obtain ½×, ¼×, ⅛× and 1/16× rates of the high rate. Compound requirements are based upon a 12 mL application volume at a rate of 187 liters per hectare (L/ha). Formulated compounds were applied to the plant material with an overhead Mandel track sprayer equipped with 8002E nozzles calibrated to deliver 187 L/ha over an application area of 0.503 square meters at a spray height of 18 inches (43 cm) above the average plant canopy height. Control plants were sprayed in the same manner with the solvent blank.
(§4) The treated plants and control plants were placed in a greenhouse as described above and watered by subirrigation to prevent wash-off of the test compounds. After 14 d, the condition of the test plants as compared with that of the untreated plants was determined visually and scored on a scale of 0 to 100 percent where 0 corresponds to no injury and 100 corresponds to complete kill and are presented as indicated in Table 4.

[3] = system: Key Grass and Sedge Weeds as well as Grass Crops; test: Post-Emergent Test II: postemergent herbicidal activity, visual rating after 14 d (Table 8); format: in vivo; details: post-emergence, 336 h, 140 g ai/ha
Description: as §1, §2, §3, §4

[4] = giant foxtail (Setaria faberi), read-out: Visual Growth Reduction (%) 10 Days After Application SETFA
[5] = ivyleaf morningglory (Ipomoea hederecea), read-out: Visual Growth Reduction (%) 10 Days After Application IPOHE
[6] = sunflower (Helianthus annuus), read-out: Visual Growth Reduction (%) 10 Days After Application HELAN
[7] = wild oats (Avena fatua), read-out: Visual Growth Reduction (%) 10 Days After Application AVEFA

`Nc1cc(-c2cccc3c2OC(F)(F)O3)nc(C(=O)O)c1Cl` [Compound 85] showed a melting point of 170 °C.
For `COC(=O)c1nc(-c2ccc3c(c2F)OC(F)(F)O3)c(C)c(N)c1Cl` [Compound 53], the melting point was 153.5 to 155 °C.
For `COC(=O)c1nc(-c2cc3c(cc2F)OC(F)(F)O3)c(C)c(N)c1Cl` [Compound 50], the melting point was 162 to 165 °C.
In the case of `COC(=O)c1nc(-c2cc(F)c3c(c2)OC(F)(F)O3)cc(N)c1Cl` [Compound 43], the melting point is reported as 176 to 177 °C.
For `Cc1c(-c2ccc3c(c2F)OC(F)(F)O3)nc(C(=O)O)c(Cl)c1N` [Compound 54], the “Visual Growth Reduction (%) 10 Days After Application ECHCG” value [1] was “G (0-29)”, the pest or weed control at 4000 g/ha [1, 4] was 0 to 29% and the pest or weed control at 4000 g/ha [1, 5] was 0 to 29%. For the same compound, the pest or weed control at 4000 g/ha [1, 6] was 60 to 74% and the pest or weed control at 4000 g/ha [1, 7] was 0 to 29%.
With `COc1cc2c(cc1-c1cc(N)c(Cl)c(C(=O)O)n1)OC(F)(F)O2` [Compound 39] the melting point was 165 to 166 °C.
`COC(=O)c1nc(-c2ccc3c(c2F)OC(F)(F)O3)nc(N)c1OC` [Compound 65] gave a melting point of 109 to 111 °C.
Work on `C=Cc1c(C(=O)OC)nc(-c2ccc3c(c2)OC(F)(F)O3)c(F)c1N` [Compound 29] yielded a melting point of 112 to 114 °C.
In the case of `Cc1c(-c2cc3c(cc2F)OC(F)(F)O3)nc(C(=O)O)c(Cl)c1N` [Compound 51], the “Visual Growth Reduction (%) 10 Days After Application ECHCG” value [1] is reported as “G (0-29)”, the pest or weed control at 4000 g/ha [1, 4] is reported as 0 to 29% and the pest or weed control at 4000 g/ha [1, 5] is reported as 0 to 29%. For the same compound, the pest or weed control at 4000 g/ha [1, 6] was 60 to 74% and the pest or weed control at 4000 g/ha [1, 7] was 0 to 29%.
For `CN1CCc2cc(-c3nc(C(=O)O)c(Cl)c(N)c3F)ccc21` [Compound 108], the pest or weed control at 140 g/ha ([2]; ABUTH: velvetleaf (Abutilon theophrasti), read-out: Visual Growth Reduction (%) 14 Days After Application ABUTH) was 0 to 29%, the pest or weed control at 140 g/ha ([2]; AMARE: redroot pigweed (Amaranthus retroflexus), read-out: Visual Growth Reduction (%) 14 Days After Application AMARE) was 0 to 29% and the pest or weed control at 140 g/ha ([2]; BRSNN: oilseed rape, canola (Brassica napus), read-out: Visual Growth Reduction (%) 14 Days After Application BRSNN) was 0 to 29%. For the same compound, the pest or weed control at 140 g/ha ([2]; CHEAL: lambsquarters (Chenopodium album), read-out: Visual Growth Reduction (%) 14 Days After Application CHEAL) was 60 to 74%, the pest or weed control at 140 g/ha ([2]; EPHHL: wild poinsettia (Euphorbia heterophylla), read-out: Visual Growth Reduction (%) 14 Days After Application EPHHL) was 0 to 29% and the pest or weed control at 140 g/ha ([2]; HELAN: sunflower (Helianthus annuus), read-out: Visual Growth Reduction (%) 14 Days After Application HELAN) was 60 to 74%. For the same compound, the pest or weed control at 140 g/ha ([3]; barnyardgrass (Echinochloa crus-galli), read-out: Visual Growth Reduction (%) 14 Days After Application, ECHCG) was 75 to 84%, the pest or weed control at 140 g/ha ([3]; giant foxtail (Setaria faberi), read-out: Visual Growth Reduction (%) 14 Days After Application, SETFA) was 0 to 29% and the pest or weed control at 140 g/ha ([3]; maize, corn (Zea mays), read-out: Visual Growth Reduction (%) 14 Days After Application, ZEAMX) was 0 to 29%. For the same compound, the pest or weed control at 140 g/ha ([3]; rice (Oryza sativa), read-out: Visual Growth Reduction (%) 14 Days After Application, ORYSA) was 0 to 29%, the pest or weed control at 140 g/ha ([3]; wheat, spring (Triticum aestivum), read-out: Visual Growth Reduction (%) 14 Days After Application, TRZAS) was 0 to 29% and the pest or weed control at 140 g/ha ([3]; yellow nutsedge (Cyperus esculentus), read-out: Visual Growth Reduction (%) 14 Days After Application, CYPES) was 0 to 29%.
